Laboratory results from patent US20250255929A1, “METHODS FOR REDUCING RISKS ASSOCIATED WITH HEART FAILURE AND FACTORS ASSOCIATED THEREWITH” (Stealth BioTherapeutics Inc., priority 2012, published 2025).
Several values for one entry are separate records, joined by “and”; a condition that tells them apart may be missing. Equal values may be shown once. Square brackets hold non-standard residues; d marks the D form. Ends that are not written are not given here. Dmt = Cc1cc(O)cc(C)c1C[C@H](N)C(=O)O

Assays:
Type in all cases: in vivo
[1] = tested on: reactive oxygen species (ROS); assay: Plasma ROS (luminol chemiluminescence) in dog model of heart failure; details: for plasma ROS levels (FIG. 2), in words: HF dogs
Experimental: (§1) Heart failure was induced as described in Example 1. […] Half the dogs were treated with the peptide; the other half were treated with drug vehicle and served as controls. Peptide treatment was started upon induction of heart failure (HF), defined as left ventricular ejection fraction of approximately 30%. The daily dose of the peptide was 0.5 mg/kg/day administered intravenously. Blood samples were drawn on EDTA anticoagulant and were centrifuged at 2,500 RPM and the plasma extracted, aliquoted in 1 ml volumes into crystat tubes and stored at −70° C. until assayed. Once the follow-up was completed in all dogs, the plasma samples were thawed to room temperature and ROS was assayed. To assess ROS levels in the plasma, luminol (5-amino-2,3 dihydro-1,4 phtalazindione) was added to the samples. ROS levels were then assessed by chemiluminescence activity.

TNF-alpha = assay: Plasma TNF-alpha (double antibody sandwich ELISA) in dog model of heart failure; details: for plasma TNF-alpha levels (FIG. 4), in words: HF dogs
Experimental: The methods of Example 1 was used induce heart failure, administer peptide or vehicle, and to collect plasma samples for analysis. Fourteen dogs were used in this example. Half the dogs were treated with the peptide; the other half were treated with drug vehicle and served as controls. Peptide treatment was started in both groups upon induction of heart failure (HF), defined as left ventricular ejection fraction of approximately 30%.
TNF-alpha was quantified in EDTA-plasma using a double antibody sandwich ELISA. Briefly, TNF-alpha (Canine TNFα Duo Sett, Cat #DY1507) was purchased from R&D Systems. The assay was performed based on instructions provided by the supplier with minor modifications. The amount of EDTA-plasma incubated with antibody plate was 150 μl and incubation time was 18 hours at 4° C. Using standard curves and software, the concentration of TNFα was expressed as pg/ml.

NT-pro BNP = assay: Plasma NT-pro BNP (double antibody sandwich ELISA) in dog model of heart failure; details: for plasma NT-pro BNP levels (FIG. 5), in words: HF dogs
Experimental: Heart failure was induced in dogs via multiple sequential intracoronary microembolizations as described in Sabbah, et al., Am J Physiol. (1991) 260:H1379-84, herein incorporated by reference in its entirety and summarized in Example 1.
as §1, with “NT-pro BNP” for “ROS”, “assayed.” for “assayed. To assess ROS levels in the plasma, luminol (5-amino-2,3 dihydro-1,4 phtalazindione) was added to the samples. ROS levels were then assessed by chemiluminescence activity.”
Nt-pro BNP (pg/ml) was determined in EDTA-plasma on the principle of the double antibody sandwich Enzyme-linked immunosorbent assay (ELISA). The assay was performed based upon the instructions came along with the assay kit (NT-pro BNP, Kamiya Biomedical Company, Cat #KT-23770). Using standard curves with the help of Software (MasterPlex-2010), the concentration of each biomarker was determined.

[2] = tested on: mitochondrial ATP-sensitive potassium channel (mK ATP); assay: mK ATP activation in LV mitochondria (thallium-sensitive fluorophore assay), dog model of heart failure; details: LV mitochondria of HF dogs after three months, 0.5 mg/kg/day, n=5; control 1372±112, p<0.05
Experimental: (§2) Heart failure was induced in dogs via multiple sequential intracoronary microembolizations as described in Sabbah, et al., Am J Physiol. (1991) 260:H1379-84, herein incorporated by reference in its entirety.
(§3) Heart failure was induced as described in Example 1. […] Half the dogs were treated with the peptide (n=5); the other half were treated with drug vehicle and served as controls (n=5). Peptide treatment was started upon induction of heart failure (HF), defined as left ventricular ejection fraction of approximately 30%. The daily dose of the peptide was 0.5 mg/kg/day administered intravenously for three months. Subcutaneous daily injections of saline were administered to the controls. Left ventricular tissue was harvested at the end of the three months of treatment. Mitochondria were isolated from the tissue. MK ATP activation was measured using the thallium-sensitive fluorophore assay kit and quantified in relative fluorescence units (RFU) per mg protein. Mitochondrial ATP to ADP ratio was measured using the bioluminescent ApoSENSOR™ assay kit (Enzo Life Sciences, Farmingdale, NY).

[3] = tested on: Mitochondrial ATP to ADP ratio; assay: Mitochondrial ATP to ADP ratio (ApoSENSOR assay) in LV mitochondria, dog model of heart failure; details: LV mitochondria of HF dogs after three months, 0.5 mg/kg/day, n=5; control 0.38±0.04, p<0.05
Experimental: as §3

Taz1 = Taz1 mRNA in LV tissue (real-time PCR), dog model of heart failure; details: LV tissue of HF dogs, 3 months, 0.5 mg/kg once daily s.c., n=6; untreated HF decreased 2.25-fold vs normal; normalized to GAPDH
Experimental: as §2
(§4) Twelve dogs were subject to coronary microembolization-induced heart failure (LV ejection fraction ˜30%) as described in Example 1. […] RNA was prepared from LV tissue of all 12 dogs at the end of the treatment phase and from the LV of 6 normal (NL) dogs for comparison. mRNA levels of Taz1, MLCL AT1 and ALCAT1 were determined by real-time PCR. Changes in mRNA expression were expressed as fold changes using the CT Method with normalization to […] (GAPDH) as internal control.

MLCL AT1 = MLCL AT1 mRNA in LV tissue (real-time PCR), dog model of heart failure; details: LV tissue of HF dogs, 3 months, 0.5 mg/kg once daily s.c., n=6; untreated HF increased 2.60-fold vs normal; normalized to GAPDH
Experimental: as §2, §4

[4] = plasma, individual HF dogs, 6 weeks after initiating therapy, 0.5 mg/kg/day
[5] = plasma, individual HF dogs, 12 weeks after initiating therapy, 0.5 mg/kg/day
[6] = plasma, peptide group, individual dogs, baseline (before HF and treatment)
[7] = plasma, peptide group, individual dogs, heart failure prior to initiating therapy

D-Arg-2′,6′-Dmt-Lys-Phe-NH2 ([dR][Dmt]KF-NH2) [aromatic-cationic peptide]
plasma ROS levels (FIG. 2), in words ([1]; treatment for 12 weeks): near normal levels | plasma ROS levels (FIG. 2), in words ([1]; treatment for six weeks): reduced ROS levels | Reactive oxygen species concentration, 6 Wk [1, 4]: 18.4 RLU×10^5/ml and 16.6 RLU×10^5/ml and 15.1 RLU×10^5/ml and 23.3 RLU×10^5/ml | Reactive oxygen species concentration, 12 Wk [1, 5]: 12.4 RLU×10^5/ml (2×) and 8.3 RLU×10^5/ml and 9.0 RLU×10^5/ml and 10.5 RLU×10^5/ml | Reactive oxygen species concentration, 12 Wk, Mean ([1]; plasma, mean of 5 HF dogs, 12 weeks after initiating therapy, 0.5 mg/kg/day): 10.5 RLU×10^5/ml | Reactive oxygen species concentration, 6 Wk, Mean ([1]; plasma, mean of HF dogs, 6 weeks after initiating therapy, 0.5 mg/kg/day): 18.4 RLU×10^5/ml | Reactive oxygen species concentration, BL, Mean ([1]; plasma, peptide group mean (5 dogs), baseline (before HF and treatment)): 5.3 RLU×10^5/ml | Reactive oxygen species concentration, PRE, Mean ([1]; plasma, peptide group mean, heart failure prior to initiating therapy): 20.7 RLU×10^5/ml | Reactive oxygen species concentration, BL [1, 6]: 5.5 RLU×10^5/ml and 3.9 RLU×10^5/ml and 6.8 RLU×10^5/ml and 5.7 RLU×10^5/ml and 4.7 RLU×10^5/ml | Reactive oxygen species concentration, PRE [1, 7]: 23.6 RLU×10^5/ml and 18.5 RLU×10^5/ml and 14.6 RLU×10^5/ml and 26.0 RLU×10^5/ml | plasma TNF-alpha levels (FIG. 4), in words (TNF-alpha; treatment for 12 weeks): near normal levels | plasma TNF-alpha levels (FIG. 4), in words (TNF-alpha; treatment for six weeks): reduced TNF-alpha levels | TNF-α concentration, 6 Wk (TNF-alpha; plasma, individual HF dogs, 6 weeks after initiating therapy): 3.27 pg/mL and 3.08 pg/mL and 3.50 pg/mL and 3.16 pg/mL and 3.72 pg/mL and 3.12 pg/mL and 2.60 pg/mL | TNF-α concentration, 12 Wk (TNF-alpha; plasma, individual HF dogs, 12 weeks after initiating therapy): 1.14 pg/mL and 1.42 pg/mL and 1.18 pg/mL and 1.75 pg/mL and 1.69 pg/mL and 1.53 pg/mL and 1.35 pg/mL | TNF-α concentration, 6 Wk, Mean (TNF-alpha; plasma, mean of 7 HF dogs, 6 weeks after initiating therapy): 3.21 pg/mL | TNF-α concentration, 12 Wk, Mean (TNF-alpha; plasma, mean of 7 HF dogs, 12 weeks after initiating therapy): 1.44 pg/mL | TNF-α concentration, BL, Mean (TNF-alpha; plasma, peptide group mean (7 dogs), baseline (before HF and treatment)): 1.24 pg/mL | TNF-α concentration, PRE, Mean (TNF-alpha; plasma, peptide group mean (7 dogs), heart failure prior to initiating therapy): 4.36 pg/mL | TNF-α concentration, BL (TNF-alpha; [6]): 0.90 pg/mL and 0.97 pg/mL and 1.02 pg/mL and 1.85 pg/mL and 1.30 pg/mL and 1.11 pg/mL and 1.54 pg/mL | TNF-α concentration, PRE (TNF-alpha; [7]): 4.26 pg/ml (2×) and 3.96 pg/ml and 4.69 pg/ml and 4.59 pg/ml and 4.31 pg/ml and 4.42 pg/ml | plasma NT-pro BNP levels (FIG. 5), in words (NT-pro BNP; treatment for 12 weeks): normal or near normal levels | plasma NT-pro BNP levels (FIG. 5), in words (NT-pro BNP; treatment for six weeks): reduced NT-pro BNP levels | NT-pro BNP, 6Wk, AVG (NT-pro BNP; plasma, average of 7 HF dogs, 6 weeks after initiating therapy, 0.5 mg/kg/day): 667 pg/mL | NT-pro BNP, 12 Wk, AVG (NT-pro BNP; plasma, average of 7 HF dogs, 12 weeks after initiating therapy, 0.5 mg/kg/day): 354 pg/mL | NT-pro BNP, 6Wk (NT-pro BNP; [4]): 695 pg/ml (2×) and 559 pg/ml and 796 pg/ml and 680 pg/ml and 593 pg/ml and 654 pg/ml | NT-pro BNP, 12 Wk (NT-pro BNP; [5]): 299 pg/mL and 422 pg/mL and 234 pg/mL and 294 pg/mL and 417 pg/mL and 393 pg/mL and 423 pg/mL | NT-pro BNP, BL, AVG (NT-pro BNP; plasma, peptide group average (7 dogs), baseline before heart failure (before treatment)): 278 pg/mL | NT-pro BNP, Pre, AVG (NT-pro BNP; plasma, peptide group average (7 dogs), heart failure prior to initiating therapy): 1128 pg/mL | NT-pro BNP, BL (NT-pro BNP; plasma, peptide group, individual dogs, baseline before heart failure (before treatment)): 257 pg/mL and 203 pg/mL and 271 pg/mL and 320 pg/mL and 289 pg/mL and 265 pg/mL and 346 pg/mL | NT-pro BNP, Pre (NT-pro BNP; [7]): 1512 pg/mL and 1223 pg/mL and 1078 pg/mL and 1034 pg/mL and 1018 pg/mL and 1090 pg/mL and 941 pg/mL | activation of mK ATP [2]: 2775±254 relative fluorescence units (R | ATP/ADP (mitochondrial ATP to ADP ratio) [3]: 1.16±0.15 | Taz1 mRNA: attenuated decrease, fold (Taz1): 1.23 fold | MLCL AT1 mRNA: reduced increase, fold (MLCL AT1): 1.18 fold
